Measurements reported in US9572890B2, “Oral formulations of mitochondrially-targeted antioxidants and their preparation and use” (MITOTECH SA, priority 2011, dated 2017).

Assays:
[1] = Stability in dark plastic or glass vials (light sensitivity); type: physicochemical
From the text: Accordingly, one of the ways to further improve or increase stability of SkQ liquid compositions during storage and transportation is to protect it from light.

[2] = Accelerated decay experiment of SkQ1H2/ascorbic acid powder; type: physicochemical; conditions: powder 95% ascorbic acid and 5% SkQ1H2
Description: SkQ1H2, a reduced quinole form of SkQ, was prepared as follows: 10 ml SkQ1H2 solution (with concentration 1 mg/ml) in ethanol was thoroughly mixed with 200 mg ascorbic acid and then vacuum dried.

[3] = Storage stability of oxidized SkQ1 formulations (Example 8); type: physicochemical
Description: The stability of SkQ1 in the prepared solution was investigated by storage at RT and at 60° C. (Table 4).
The stability of SkQ1 in the prepared solution was investigated by storage at 60° C. (Table 5).
The stability of SkQ1 in the prepared composition was investigated by storage at 4° C. in darkness (Table 6).
The stability of SkQ1 in the prepared composition was investigated by storage at 60° C. in darkness (Table 7).
The stability of SkQ1 in the prepared composition was investigated by storage at RT in darkness (Table 8).
The stability of SkQ1 in the prepared composition was investigated by storage at 60° C. in darkness (Table 9).
The stability of SkQ1 in the prepared composition was investigated by storage at RT in darkness (Table 10).
The stability of SkQ1 in the prepared composition was investigated by storage at 60° C. in darkness (Table 11).

LPS-induced septic shock = experiment: LPS/D-GalN-induced septic shock, survival; type: in vivo, BALB/c mice
Description: Induction of the septic shock was performed as follows: 43 male BALB/c mice with free food and water access were divided onto 4 experimental groups. Group “K” got water without drugs. Groups “SkQ 50,” “SkQ 250,” and “SkQ 1250” were daily parenterally treated with pharmaceutical form of SkQ1 in water comprising 50 nmol/kg, 250 nmol/kg, and 1250 nmol/kg accordingly. After 3 weeks of SkQ1 treatment animals were intraperitonially injected with […] LPS and 700 mg/kg D-galactosamine (D-GalN) inducing septic shock leading to death of 50% of untreated control animals (LD50 dose). Death of animals were registered after 4 d of septic shock induction.

[4] = test system: human endothelial cells EA.hy926; experiment: TNF-α induced death of endothelial cells (MTT test); type: cell-based; conditions: 2 nM pre-incubation 4 d; TNF-α 0.25 to 50 ng/ml for 2 d
Description: Human endothelial cell line EA.hy926 (ATCC Collection; catalog number CRL-2922) was used as a model of vascular endothelium. This cell line is similar to primary HUVEC cell line (Edgell et al. (1983) PNAS, 80(12):3734-7; Edgell et al. (1990) In Vitro Cell Dev Biol., 26(12):1167-72) and widely used as a relevant model for inflammation studies (Riesbeck et al. (1998) Clin. Vaccine Immunol., 5:5675-682).
Accordingly, human endothelial cells EA.hy926 were pre-incubated with 0.2 nM SkQR1 or 2 nM SkQ1 solution in Dulbecco's Modified Eagle's Medium (DMEM) supplemented with 10% of fetal serum (Example 1) for 4 d. After that the cells were incubated overnight with fresh DMEM medium with 0.2% of fetal serum. The cells were incubated 2 d with TNF-α (0.25 ng/ml to 50 ng/ml) and cell death was monitored using standard MTT test (Berridge et al. (1996) Biochemica, 4:14-9). The data from this assay is shown as means±S.E. at least for 3 separate experiments.

ICAM-1 mRNA expression = ICAM-1 mRNA expression induced by TNF-α in EAhy926 cells (real-time PCR); type: cell-based, human; conditions: 0.2 nM for 4 d; TNF-α 0.05 ng/ml for 4 h
From the text: The effects of SkQ1 on ICAM-1 mRNA expression and cytokines (IL-6, IL-8) protein secretion induced by TNF-α in EAhy926 human endothelial cells (ATCC collection; catalog number CRL-2922) were examined. TNF-α is a central proinflammatory cytokine stimulating expression of cell adhesion molecules and many inflammatory cytokines. Anti-inflammatory properties of many drugs often rely on their ability to inhibit expression of pro-inflammatory cytokines induced by TNF-α using EAhy926 endothelial cells (Edgell et al. (1983) Proc. Natl. Acad. Sci. USA, 80:3734-7; Lombardi et al. (2009) Eur. J. Cell. Biol., 88:731-42; Manea et al. (2010) Cell Tissue Res., 340:71-9).
300,000 cells were plated on 60 mm^2 culture dishes and after attachment were treated with an SkQ1 solution (0.2 nM in DMEM medium with 10% fetal serum) for 4 d, and then stimulated with TNF-α (0.05 ng/ml for 4 h for ICAM-1 or 5 ng/ml for 15 h for cytokines, respectively). ICAM-1 mRNA expression was determined by real-time PCR (Okada et al. (2005) Invest. Ophtalmol. Vis. Sci., 46:4512-8). Secretion of IL-6 and IL-8 was evaluated by ELISA (Toma et al. (2009) Biochem. Biophys. Res. Commun., 390:877-82; Volanti et al. (2002) Photochem. Photobiol., 75:36-45.) The data is shown as means±S.E. at least for 3 separate experiments.

endothelial cells = experiment: TNFα-caused dysfunction of endothelial barrier (microscopy of VE-cadherin, beta-cathenin, F-actin); type: cell-based

CC1=C(C)C(=O)C(CCCCCCCCCC[P+](c2ccccc2)(c2ccccc2)c2ccccc2)=CC1=O [SkQ1]
stability [1]: significantly increased
SkQ1 purity ([2]; after storage for 12 d at 60° C.): 95.1%
loss from the initial concentration of the active compound ([2]; calculated for storage for 1 year at 4° C.): approximately 3.5%
SkQ1 purity ([2]; initial): 98.7%
SkQ1, % ([3]; SkQ1 1 mM in 20% glycerol, phosphate buffer pH 4.77, stored at 60° C., day 0): 99.34%
SkQ1, % ([3]; SkQ1 1 mM in 20% glycerol, phosphate buffer pH 4.77, stored at 60° C., day 19): 95.30%
SkQ1, % ([3]; SkQ1 1 mM in 20% glycerol, phosphate buffer pH 4.77, stored at RT, day 0): 99.34%
SkQ1, % ([3]; SkQ1 1 mM in 20% glycerol, phosphate buffer pH 4.77, stored at RT, day 11): 99.71%
SkQ1, % ([3]; SkQ1 1 mM in 20% glycerol, phosphate buffer pH 4.77, stored at RT, day 13): 99.76%
SkQ1, % ([3]; SkQ1 1 mM in 20% glycerol, phosphate buffer pH 4.77, stored at RT, day 14): 99.68%
SkQ1, % ([3]; SkQ1 1 mM in 20% glycerol, phosphate buffer pH 4.77, stored at RT, day 17): 99.62%
SkQ1, % ([3]; SkQ1 1 mM in 20% glycerol, phosphate buffer pH 4.77, stored at RT, day 19): 99.63%
SkQ1, % ([3]; SkQ1 1 mM in 20% glycerol, phosphate buffer pH 4.77, stored at RT, day 21): 99.52%
SkQ1, % ([3]; SkQ1 1 mM in 20% glycerol, phosphate buffer pH 4.77, stored at RT, day 24): 99.57%
SkQ1, % ([3]; SkQ1 1 mM in 20% glycerol, phosphate buffer pH 4.77, stored at RT, day 61): 99.49%
SkQ1, % ([3]; SkQ1 with PEG-4000, solid, 4° C. in darkness, day 18): >99.9%
SkQ1, % ([3]; SkQ1 with PEG-4000, solid, 4° C. in darkness, day 19): 99.83%
SkQ1, % ([3]; SkQ1 with PEG-4000, solid, 4° C. in darkness, day 20): 99.80%
SkQ1, % ([3]; SkQ1 with dextran and p-ABA, solid, 60° C. in darkness, day 0): 97.13%
SkQ1, % ([3]; SkQ1 with dextran and p-ABA, solid, 60° C. in darkness, day 6): 39.22%
SkQ1, % ([3]; SkQ1 with dextran and p-ABA, solid, 60° C. in darkness, day 15): 7.07%
SkQ1, % ([3]; SkQ1 with dextran, solid, 60° C. in darkness, day 0): 96.71%
SkQ1, % ([3]; SkQ1 with dextran, solid, 60° C. in darkness, day 6): 20.66%
SkQ1, % ([3]; SkQ1 with dextran, solid, 60° C. in darkness, day 15): 24.14%
SkQ1, % ([3]; SkQ1 with dextran, solid, 60° C. in darkness, day 25): 18.93%
SkQ1, % ([3]; SkQ1 with myoinosite, solid, RT in darkness, day 0): 95.88%
SkQ1, % ([3]; SkQ1 with myoinosite, solid, RT in darkness, day 5): 96.86%
SkQ1, % ([3]; SkQ1 with myoinosite, solid, RT in darkness, day 6): 95.99%
SkQ1, % ([3]; SkQ1 with myoinosite, solid, RT in darkness, day 15): 92.26%
SkQ1, % ([3]; SkQ1 with p-aminobenzoic acid (p-ABA), solid, RT in darkness, day 0): 100%
SkQ1, % ([3]; SkQ1 with p-aminobenzoic acid (p-ABA), solid, RT in darkness, day 30): 58.42%
SkQ1, % ([3]; presumably SkQ1 in 50% 1,2-propylene glycol with lactic acid (10 eq), 60° C., day 0): >99.9%
SkQ1, % ([3]; presumably SkQ1 in 50% 1,2-propylene glycol with lactic acid (10 eq), 60° C., day 72): 96.6%
SkQ1, % ([3]; presumably SkQ1 in 50% 1,2-propylene glycol with pyruvic acid (10 eq), 60° C., day 0): >99.9%
SkQ1, % ([3]; presumably SkQ1 in 50% 1,2-propylene glycol with pyruvic acid (10 eq), 60° C., day 72): 93.2%
survival of mice following LPS/D-GalN treatment (LPS-induced septic shock; SkQ1 in water 50, 250, 1250 nmol/kg daily parenterally for 3 weeks, death registered after 4 d): significantly improved
survival, significance of the effect (LPS-induced septic shock; dose of 50 nmol/kg, p=0.03): statistically significant effect
cell death compared to control without MTA [4]: greatly reduced
expression of ICAM-1 (ICAM-1 mRNA expression): prevents excessive expression
disassembling of intracellular contacts and cytoskeleton reorganization caused by TNFα (endothelial cells): prevented
